# Results taken from publication PMC8162746 (Cancer chemotherapy and pharmacology, 2021).
# Values joined by “and” are separate entries in the source; they are usually repeats but may differ in a detail not shown here. Equal values may be shown once. “Also recorded” adds a separate entry of the source.
# System: patients with primary CNS and advanced solid tumors
# Assay: Phase I dose-escalation trial of oral AR-42: safety and tolerability
# Format: in vivo
# [1] = 17 patients evaluable for toxicity
structure (smiles),measurement,setting,value
CC(C)[C@H](C(=O)Nc1ccc(C(=O)NO)cc1)c1ccccc1 [AR-42],Treatment-related deaths,17 patients,no treatment-related deaths
same,Grade 3 TRAE anemia,[1],2 n
same,Grade 3 TRAE anorexia,[1],1 n
same,Grade 3 TRAE hematuria,[1],1 n
same,Grade 3 TRAE hypophosphatemia,[1],3 n
same,Grade 3 TRAE lymphopenia,[1],3 n
same,Grade 3 TRAE nausea,[1],2 n
same,Grade 3 TRAE thrombocytopenia,[1],5 n
same,Grade 3 TRAE venous thromboembolism,[1],1 n
same,Grade 3 TRAE weight loss,[1],1 n
same,Cardiac toxicity observed (QTc prolongation),"17 patients, event at 30 mg",one patient with a grade 1 QTc prolongation; also recorded: one patient who experienced a grade 1 QTc prolongation
same,"Anemia, treatment-related adverse event, All grades","N=17, 30-80 mg",10 n (%) and 10 (58.8%) n (%)
same,"Anemia, treatment-related adverse event, Grade 1–2","N=17, 30-80 mg",8 (47.1%) n (%)
same,"Anemia, treatment-related adverse event, Grade 3–4","N=17, 30-80 mg",2 (11.8%) n (%)
same,"Anorexia, treatment-related adverse event, All grades","N=17, 30-80 mg",5 (29.4%) n (%)
same,"Anorexia, treatment-related adverse event, Grade 1–2","N=17, 30-80 mg",4 (23.5%) n (%)
same,"Anorexia, treatment-related adverse event, Grade 3–4","N=17, 30-80 mg",1 (5.9%) n (%)
same,"Constipation, treatment-related adverse event, All grades","N=17, 30-80 mg",4 (23.5%) n (%)
same,"Constipation, treatment-related adverse event, Grade 1–2","N=17, 30-80 mg",4 (23.5%) n (%)
same,"Cough, treatment-related adverse event, All grades","N=17, 30-80 mg",2 (11.8%) n (%)
same,"Cough, treatment-related adverse event, Grade 1–2","N=17, 30-80 mg",2 (11.8%) n (%)
same,"Dehydration, treatment-related adverse event, All grades","N=17, 30-80 mg",2 (11.8%) n (%)
same,"Dehydration, treatment-related adverse event, Grade 1–2","N=17, 30-80 mg",2 (11.8%) n (%)
same,"Diarrhea, treatment-related adverse event, All grades","N=17, 30-80 mg",6 n (%) and 6 (35.3%) n (%)
same,"Diarrhea, treatment-related adverse event, Grade 1–2","N=17, 30-80 mg",6 (35.3%) n (%)
same,"Dizziness, treatment-related adverse event, All grades","N=17, 30-80 mg",4 (23.5%) n (%)
same,"Dizziness, treatment-related adverse event, Grade 1–2","N=17, 30-80 mg",4 (23.5%) n (%)
same,"Dry mouth, treatment-related adverse event, All grades","N=17, 30-80 mg",3 (17.6%) n (%)
same,"Dry mouth, treatment-related adverse event, Grade 1–2","N=17, 30-80 mg",3 (17.6%) n (%)
same,"Dysgeusia, treatment-related adverse event, All grades","N=17, 30-80 mg",3 (17.6%) n (%)
same,"Dysgeusia, treatment-related adverse event, Grade 1–2","N=17, 30-80 mg",3 (17.6%) n (%)
same,"Elevated alkaline phosphatase, treatment-related adverse event, All grades","N=17, 30-80 mg",4 (23.5%) n (%)
same,"Elevated alkaline phosphatase, treatment-related adverse event, Grade 1–2","N=17, 30-80 mg",4 (23.5%) n (%)
same,"Elevated creatinine, treatment-related adverse event, All grades","N=17, 30-80 mg",8 n (%) and 8 (47.1%) n (%)
same,"Elevated creatinine, treatment-related adverse event, Grade 1–2","N=17, 30-80 mg",8 (47.1%) n (%)
same,"Fatigue, treatment-related adverse event, All grades","N=17, 30-80 mg",11 (64.7%) n (%)
same,"Fatigue, treatment-related adverse event, Grade 1–2","N=17, 30-80 mg",11 (64.7%) n (%)
same,"Headache, treatment-related adverse event, All grades","N=17, 30-80 mg",3 (17.6%) n (%)
same,"Headache, treatment-related adverse event, Grade 1–2","N=17, 30-80 mg",3 (17.6%) n (%)
same,"Hematuria, treatment-related adverse event, All grades","N=17, 30-80 mg",1 (5.9%) n (%)
same,"Hematuria, treatment-related adverse event, Grade 3–4","N=17, 30-80 mg",1 (5.9%) n (%)
same,"Hypermagnesemia, treatment-related adverse event, All grades","N=17, 30-80 mg",2 (11.8%) n (%)
same,"Hypermagnesemia, treatment-related adverse event, Grade 1–2","N=17, 30-80 mg",2 (11.8%) n (%)
same,"Hypernatremia, treatment-related adverse event, All grades","N=17, 30-80 mg",2 (11.8%) n (%)
same,"Hypernatremia, treatment-related adverse event, Grade 1–2","N=17, 30-80 mg",2 (11.8%) n (%)
same,"Hypersomnia, treatment-related adverse event, All grades","N=17, 30-80 mg",2 (11.8%) n (%)
same,"Hypersomnia, treatment-related adverse event, Grade 1–2","N=17, 30-80 mg",2 (11.8%) n (%)
same,"Hypoalbuminemia, treatment-related adverse event, All grades","N=17, 30-80 mg",5 (29.4%) n (%)
same,"Hypoalbuminemia, treatment-related adverse event, Grade 1–2","N=17, 30-80 mg",5 (29.4%) n (%)
same,"Hyponatremia, treatment-related adverse event, All grades","N=17, 30-80 mg",3 (17.6%) n (%)
same,"Hyponatremia, treatment-related adverse event, Grade 1–2","N=17, 30-80 mg",3 (17.6%) n (%)
same,"Hypophosphatemia, treatment-related adverse event, All grades","N=17, 30-80 mg",7 n (%) and 7 (41.2%) n (%)
same,"Hypophosphatemia, treatment-related adverse event, Grade 1–2","N=17, 30-80 mg",4 (23.5%) n (%)
same,"Hypophosphatemia, treatment-related adverse event, Grade 3–4","N=17, 30-80 mg",3 (17.6%) n (%)
same,"Impaired concentration, treatment-related adverse event, All grades","N=17, 30-80 mg",3 (17.6%) n (%)
same,"Impaired concentration, treatment-related adverse event, Grade 1–2","N=17, 30-80 mg",3 (17.6%) n (%)
same,"Leukopenia, treatment-related adverse event, All grades","N=17, 30-80 mg",8 n (%) and 8 (47.1%) n (%)
same,"Leukopenia, treatment-related adverse event, Grade 1–2","N=17, 30-80 mg",8 (47.1%) n (%)
same,"Limb edema, treatment-related adverse event, All grades","N=17, 30-80 mg",2 (11.8%) n (%)
same,"Limb edema, treatment-related adverse event, Grade 1–2","N=17, 30-80 mg",2 (11.8%) n (%)
same,"Lymphopenia, treatment-related adverse event, All grades","N=17, 30-80 mg",7 n (%) and 7 (41.2%) n (%)
same,"Lymphopenia, treatment-related adverse event, Grade 1–2","N=17, 30-80 mg",4 (23.5%) n (%)
same,"Lymphopenia, treatment-related adverse event, Grade 3–4","N=17, 30-80 mg",3 (17.6%) n (%)
same,"Myalgia, treatment-related adverse event, All grades","N=17, 30-80 mg",4 (23.5%) n (%)
same,"Myalgia, treatment-related adverse event, Grade 1–2","N=17, 30-80 mg",4 (23.5%) n (%)
same,"Nausea, treatment-related adverse event, All grades","N=17, 30-80 mg",10 n (%) and 10 (58.8%) n (%)
